These results are taken from US20250177529A1, “ACOUSTIC ENRICHMENT OF ADOPTIVE CELL TRANSFERS” (THE REGENTS OF THE UNIVERSITY OF COLORADO, A BODY CORPORATE, priority 2022, published 2025).

The conditions of data set [1]: in vivo; cited from earlier work.
Data set [2] deals with primary macrophages. The experiment in a line: Primary macrophage polarization by IFNγ-containing particles. The data set is classed as cell-based. As to conditions: compared to controls. The source says: FIG. 7 presents exemplary data showing primary macrophage polarization in various conditions.
FIG. 7A: Normoxia (i.e., standard cell culture conditions) without interferon gamma (IFNγ).
FIG. 7B: Normoxia with IFNγ.
FIG. 7C: Tumor-promoting conditions (i.e., in hypoxia (1% 02) and 10 vol. % tumor (4T1)-conditioned media) and bound to IFNγ-containing particles after 24 hrs.
As discussed above, discoidal elastomeric particles can encapsulate inflammatory cytokines (i.e., IFNγ) and polarize the cells to which they are bound. […] Macrophages maintained their polarization for 5 days, even when challenged by hypoxia (1% O2) and tumor-conditioned media (i.e., 10 vol. % tumor (4T1)-conditioned media).

In the case of `CC(C)(CNC(=O)c1cccc(-c2noc(C(F)(F)F)n2)c1)c1coc(-c2ccccc2)n1` [TMP195], the “maximum tolerated dose (MTD)” value in data set [1] is recorded as 50 mg/kg.

`CCOCc1nc2c(N)nc3ccccc3c2n1CC(C)(C)O` [resiquimod]: the “maximum tolerated dose (MTD)” value in data set [1] is 5 mg/kg.

B1: IFNγ: inflammatory cytokine, equivalent free dose (protein, UniProt P01580 23-155, looked up)
Interferon gamma: HGTVIESLESLNNYFNSSGIDVEEKSLFLDIWRNWQKDGDMKILQSQIISFYLRLFEVLKDNQAISNNISVIESHLITTFFSNSKAKKDAFMSIAKFEVNNPQVQRQAFNELIRVVHQLLPESSLRKRKRSRC
As to B1, the “iNOS expression, fold higher” value in data set [2] came to 1.3 fold.
